This note sets out measurements from BindingDB's records for doi:10.3109/14756366.2012.670806 (Jeju National University, 2013).

In this experiment the target is T1, Polyphenol oxidase 1 (White button mushroom, UniProt Q00024).
T1 sequence (Q00024 whole entry): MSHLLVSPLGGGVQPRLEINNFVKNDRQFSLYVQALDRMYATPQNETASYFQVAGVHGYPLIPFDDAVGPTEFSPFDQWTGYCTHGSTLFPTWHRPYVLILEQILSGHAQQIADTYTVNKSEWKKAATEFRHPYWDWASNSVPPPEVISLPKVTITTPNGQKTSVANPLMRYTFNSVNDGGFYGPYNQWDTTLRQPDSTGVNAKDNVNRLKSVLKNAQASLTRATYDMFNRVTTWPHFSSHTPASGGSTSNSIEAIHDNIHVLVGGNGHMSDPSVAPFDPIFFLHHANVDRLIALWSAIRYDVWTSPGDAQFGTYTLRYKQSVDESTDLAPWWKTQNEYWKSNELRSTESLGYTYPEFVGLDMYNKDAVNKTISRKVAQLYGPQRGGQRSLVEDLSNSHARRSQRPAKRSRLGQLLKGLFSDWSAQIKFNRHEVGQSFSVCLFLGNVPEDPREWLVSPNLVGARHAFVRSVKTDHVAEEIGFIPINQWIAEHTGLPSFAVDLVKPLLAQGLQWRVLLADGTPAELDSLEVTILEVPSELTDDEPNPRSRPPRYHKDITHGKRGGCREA
Put plainly: Tyrosinase Inhibition Assay. The conditions noted are these: pH 6.8; 37 °C. Here is the method:
Briefly, mushroom tyrosinase (1250 units/mL) and 2 mM L-tyrosine (0.07 mL) were added to a solution of phosphate buffer (0.1 M, pH 6.8, 0.09 mL) containing the test sample. The test mixture (0.2 mL) was incubated for 10 min at 37°C and the absorption due to the formation of dopachrome was monitored at 475 nm. The same mixture except for the plant extract was used as a control. Arbutin (hydroquinone-O-β-glucopyranoside) was used as a positive control. Each treatment was replicated three times.
As usually defined, the IC50 is the concentration that gives 50% inhibition. Lower therefore signals inhibition by little substance. `OC[C@H]1O[C@@H](Oc2ccc(O)cc2)[C@H](O)[C@@H](O)[C@@H]1O` [4-hydroxyphenyl beta-D-glucopyranoside] registered an IC50 of 320 µM.

`CC1OC(Oc2c(-c3ccc(O)cc3)oc3cc(O)cc(O)c3c2=O)C(OC(=O)/C=C/c2ccc(O)cc2)C(OC(=O)/C=C/c2ccc(O)cc2)C1O` (stereo not drawn) [Neolitsea aciculata extract, 5] registered an IC50 of 67 µM. This IC50 is about 4.8-fold lower than that of the compound before. Take `CC1OC(Oc2c(-c3ccc(O)cc3)oc3cc(O)cc(O)c3c2=O)C(OC(=O)/C=C/c2ccc(O)cc2)C(O)C1O` (stereo not drawn) [Neolitsea aciculata extract, 6]: the concentration for half-maximal inhibition (IC50) worked out at 80 µM.
